The compounds below were run on Human peripheral blood mononuclear cells (PBMC) (assay: PBMC screening assay: TNF-α in supernatant by ELISA or HTRF). Conditions: TNF-α activity in supernatant of human PBMC, 24 hours incubation, 1000 to 0.000238 nM.
Assay type: cell-based
Protocol: Materials and general procedures. Human peripheral blood mononuclear cells (PBMC) were obtained from BenTek, frozen at 25×10^6 cell/mL in 10% DMSO (Sigma) prepared in fetal bovine serum (Gibco) and stored in liquid nitrogen. For the culture, PBMC were thawed quickly in a 37° C. water bath and diluted into pre-warmed RPMI 1640 (Lonza) supplemented with 10% fetal bovine serum, 2 mM glutamine, […] (all from Gibco) and centrifuged for 5 minutes at 500×g. PBMC were suspended into the growth media described above and cultured at a concentration of 1×10^6 cells per mL at 37° C. in a 5% CO2 incubator.
General procedure for in vitro small molecule screening. PBMC were thawed, suspended at a concentration of 1×10^6 cell/mL in growth media and 200 μL was aliquoted into each well of a 96-well plate for a total of 0.2×10^6 cells per well. PBMC were incubated for approximately 16-18 hours at 37° C. in a 5% CO2 humidified incubator. PBMC plates were centrifuged at 500×g for 5 minutes and the growth media was removed. 150 μL of twelve concentrations ranging from 1000 to 0.000238 nM of small molecules prepared in growth media were added to PBMC in duplicate and incubated for 24 hours at 37° C. in a 5% CO2 incubator. Prior to supernatant harvest, cells were spun at 500×g for 5 minutes to remove cell debris. TNF-α activity was assessed in the supernatant by ELISA (eBioscience) or HTRF (CisBio) per the manufacturer's instructions. The optical density at 450 nm and 570 nm (ELISA) or […] (HTRF) was analyzed using an Envision (Perkin Elmer) plate reader, as shown in Table 2.

SMILES | EC50
CCCN(CCC)C(=O)C1=Cc2ccc(-c3ccc(C(=O)N4CCNC(c5ccccc5)C4)cc3)cc2N=C(N)C1 (centres unmarked) [Compound 1.1, 2-amino-8-(4-(3-phenylpiperazine-1-carbonyl)phenyl)-N,N-dipropyl-3H-benzo[b]azepine-4-carboxamide] | < 0.05 µM
CCCN(CCC)C(=O)C1=Cc2ccc(-c3ccc(C(=O)N4CCN[C@H](c5ccccc5)C4)cc3)cc2N=C(N)C1 [Compound 1.2, (R)-2-amino-8-(4-(3-phenylpiperazine-1-carbonyl)phenyl)-N,N-dipropyl-3H-benzo[b]azepine-4-carboxamide] | < 0.05 µM
CCCN(CCC)C(=O)C1=Cc2ccc(-c3ccc(C(=O)N4CCN[C@@H](c5ccccc5)C4)cc3)cc2N=C(N)C1 [Compound 1.3, (S)-2-amino-8-(4-(3-phenylpiperazine-1-carbonyl)phenyl)-N,N-dipropyl-3H-benzo[b]azepine-4-carboxamide] | < 0.05 µM
CCCN(CCC)C(=O)C1=Cc2ccc(-c3ccc(C(=O)N4CCN(c5ccccc5)CC4)cc3)cc2N=C(N)C1 [Compound 1.4, 2-amino-8-(4-(4-phenylpiperazine-1-carbonyl)phenyl)-N,N-dipropyl-3H-benzo[b]azepine-4-carboxamide] | 0.05 to 0.5 µM
CCCN(CCC)C(=O)C1=Cc2ccc(-c3ccc(C(=O)N4CCC(O)(c5ccccc5)CC4)cc3)cc2N=C(N)C1 [Compound 1.5, 2-amino-8-(4-(4-hydroxy-4-phenylpiperidine-1-carbonyl)phenyl)-N,N-dipropyl-3H-benzo[b]azepine-4-carboxamide] | 0.05 to 0.5 µM
CCCN(CCC)C(=O)C1=Cc2ccc(-c3ccc(C(=O)N4CCCC(CO)C4)cc3)cc2N=C(N)C1 (centres unmarked) [Compound 1.6, 2-amino-8-(4-(3-(hydroxymethyl)piperidine-1-carbonyl)phenyl)-N,N-dipropyl-3H-benzo[b]azepine-4-carboxamide] | 0.05 to 0.5 µM
CCCN(CCC)C(=O)C1=Cc2ccc(-c3ccc(C(=O)N4CCC(CO)(c5ccccc5)CC4)cc3)cc2N=C(N)C1 [Compound 1.7, 2-amino-8-(4-(4-(hydroxymethyl)-4-phenylpiperidine-1-carbonyl)phenyl)-N,N-dipropyl-3H-benzo[b]azepine-4-carboxamide] | > 0.5 µM
CCCN(CCC)C(=O)C1=Cc2ccc(-c3ccc(C(=O)N4CCc5ccccc5C4)cc3)cc2N=C(N)C1 [Compound 1.8, 2-amino-N,N-dipropyl-8-(4-(1,2,3,4-tetrahydroisoquinoline-2-carbonyl)phenyl)-3H-benzo[b]azepine-4-carboxamide] | > 0.5 µM
CCCN(CCC)C(=O)C1=Cc2ccc(-c3ccc(C(=O)N4CCC(O)(c5ccccc5)C4)cc3)cc2N=C(N)C1 (centres unmarked) [Compound 1.9, 2-amino-8-(4-(3-hydroxy-3-phenylpyrrolidine-1-carbonyl)phenyl)-N,N-dipropyl-3H-benzo[b]azepine-4-carboxamide] | 0.05 to 0.5 µM
CCCN(CCC)C(=O)C1=Cc2ccc(-c3ccc(C(=O)N4CCCC4c4ccccc4)cc3)cc2N=C(N)C1 (centres unmarked) [Compound 1.10, 2-amino-8-(4-(2-phenylpyrrolidine-1-carbonyl)phenyl)-N,N-dipropyl-3H-benzo[b]azepine-4-carboxamide] | 0.05 to 0.5 µM
CCCN(CCC)C(=O)C1=Cc2ccc(-c3ccc(C(=O)N4CCCC4CO)cc3)cc2N=C(N)C1 (centres unmarked) [Compound 1.11, 2-amino-8-(4-(2-(hydroxymethyl)pyrrolidine-1-carbonyl)phenyl)-N,N-dipropyl-3H-benzo[b]azepine-4-carboxamide] | 0.05 to 0.5 µM
